Measured values from the supplement of paper PMC8253809.

What was measured:
[1] = tested on: DIPGX29 (H3.3 K27M diffuse intrinsic pontine glioma line); test: EC50 (inflection of fitted growth-inhibition curve) (log10 M)
How it was run: (§1)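 Treatment used a pin tool and a 10-point threefold dilution series, mean top concentration 35 μM, run in triplicate on patient-derived pHGG/DIPG cell lines and astrocyte controls in 1% Geltrex-coated 384-well plates. Plates were kept at 37 °C, 5% CO2 for 7 days (iAstro: 3 days). Log2-transformed CellTiter-Glo luminescence was scaled per plate to % activity between negative (solvent) and positive control wells and pooled before fitting. EC50 and maximal response (yFin) came from the three- or four-parameter log-logistic fit chosen by lowest AICc.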

[2] = tested on: DIPGX37 (H3.3 K27M diffuse intrinsic pontine glioma line); test: as above
How it was run: as §1

[3] = tested on: DIPGX7 (H3.3 K27M diffuse intrinsic pontine glioma line); test: as above
How it was run: as §1

[4] = tested on: DIPGX9 (diffuse intrinsic pontine glioma line); test: as above
How it was run: as §1

[5] = tested on: HABS (astrocyte control); test: as above
How it was run: as §1

[6] = tested on: HGGX2 (paediatric high-grade glioma line); test: as above
How it was run: as §1

[7] = tested on: HGGX39 (paediatric high-grade glioma line); test: as above
How it was run: as §1

[8] = tested on: HGGX42 (H3.3 G34R paediatric high-grade glioma line); test: as above
How it was run: as §1

[9] = tested on: HGGX6 (H3.3 G34R paediatric high-grade glioma line); test: as above
How it was run: as §1

[10] = tested on: SUDIPGIV (diffuse intrinsic pontine glioma line); test: as above
How it was run: as §1

[11] = tested on: SUDIPGVI (diffuse intrinsic pontine glioma line); test: as above
How it was run: as §1

[12] = tested on: SUDIPGXIII (diffuse intrinsic pontine glioma line); test: as above
How it was run: as §1

[13] = tested on: SUDIPGXIX (diffuse intrinsic pontine glioma line); test: as above
How it was run: as §1

[14] = tested on: SUDIPGXVII (diffuse intrinsic pontine glioma line); test: as above
How it was run: as §1

[15] = tested on: SUDIPGXXI (diffuse intrinsic pontine glioma line); test: as above
How it was run: as §1

[16] = tested on: iAstro (astrocyte control); test: as above
How it was run: as §1

[17] = tested on: DIPGX29; test: area under dose-response curve of % growth inhibition (log2 RLU vs DMSO / staurosporine), 1e-11 to 1e-4 M (% x log10 M); higher = more growth inhibition
How it was run: (§2)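 Patient-derived pHGG/DIPG cell lines and astrocytes were plated in 384-well plates coated with 1% Geltrex and treated in triplicate with a 10-point threefold dilution series whose mean top concentration was 35 μM, for 7 days (3 days for iAstro) at 37 °C and 5% CO2. CellTiter-Glo luminescence was log2-transformed and scaled on each plate to % activity between solvent and positive controls. Area under the curve came from the trapezoid rule applied to a fitted log-logistic curve, or to a smoothing spline where the sigmoid fit failed.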

[18] = tested on: DIPGX37; test: as above
How it was run: as §2

[19] = tested on: DIPGX7; test: as above
How it was run: as §2

[20] = tested on: DIPGX9; test: as above
How it was run: as §2

[21] = tested on: HABS; test: as above
How it was run: as §2

[22] = tested on: HGGX2; test: as above
How it was run: as §2

[23] = tested on: HGGX39; test: as above
How it was run: as §2

[24] = tested on: HGGX6; test: as above
How it was run: as §2

[25] = tested on: SUDIPGIV; test: as above
How it was run: as §2

[26] = tested on: SUDIPGVI; test: as above
How it was run: as §2

[27] = tested on: SUDIPGXIII; test: as above
How it was run: as §2

[28] = tested on: SUDIPGXIX; test: as above
How it was run: as §2

[29] = tested on: SUDIPGXVII; test: as above
How it was run: as §2

[30] = tested on: SUDIPGXXI; test: as above
How it was run: as §2

[31] = tested on: iAstro; test: as above
How it was run: as §2

SMILES: CN(C)C/C=C/C(=O)Nc1ccc(C(=O)Nc2cccc(Nc3ncc(Cl)c(-c4c[nH]c5ccccc45)n3)c2)cc1 [THZ1]
- EC50 (log10 M) [1]: -7.44
- EC50 (log10 M) [2]: -7.71
- EC50 (log10 M) [3]: -8.02
- EC50 (log10 M) [4]: -8.19
- EC50 (log10 M) [5]: -6.72
- EC50 (log10 M) [6]: -7.58
- EC50 (log10 M) [7]: -7.15
- EC50 (log10 M) [8]: -7.25
- EC50 (log10 M) [9]: -7.28
- EC50 (log10 M) [10]: -7.91
- EC50 (log10 M) [11]: -8.04
- EC50 (log10 M) [12]: -7.62
- EC50 (log10 M) [13]: -8.07
- EC50 (log10 M) [14]: -7.78
- EC50 (log10 M) [15]: -8.32
- EC50 (log10 M) [16]: -5.76
- area under dose-response curve [17]: 301
- area under dose-response curve [18]: 302
- area under dose-response curve [19]: 356
- area under dose-response curve [20]: 372
- area under dose-response curve [21]: 284
- area under dose-response curve [22]: 349
- area under dose-response curve [23]: 272
- area under dose-response curve [24]: 267
- area under dose-response curve [25]: 342
- area under dose-response curve [26]: 345
- area under dose-response curve [27]: 308
- area under dose-response curve [28]: 343
- area under dose-response curve [29]: 329
- area under dose-response curve [30]: 460
- area under dose-response curve [31]: 186
